Assay [1] concerns the target 2-acylglycerol O-acyltransferase 2 (human) (UniProt Q3SYC2). The experiment in a line: Inhibition of human recombinant MGAT2 expressed in insect cell membrane using 2-oleoyl-sn-glycerol and oleoyl coenzyme A as substrate after 40 mins by Ellmans assay based rapidfire LCMS analysis. A general note: Ellman's reagent forms a yellow product with free thiols.
In assay [2] the target is 2-acylglycerol O-acyltransferase 1 (human) (UniProt Q96PD6). Kind of assay: Inhibition of human recombinant MGAT1 expressed in insect cell membrane using 2-oleyl-sn-glycerol and [14C]-oleyl-coenzyme A as substrate after 10 to 15 mins by liquid scintillation counting analysis.
Assay [3] has as its target 2-acylglycerol O-acyltransferase 2 (mouse). The experiment in a line: Inhibition of mouse recombinant MGAT2 expressed in insect cell membrane using 2-oleoyl-sn-glycerol and oleoyl coenzyme A as substrate after 40 mins by Ellmans assay based rapidfire LCMS analysis.
The nature of assay [4]: Inhibition of human recombinant MGAT3 expressed in insect cell membrane using 2-oleyl-sn-glycerol and [14C]-oleyl-coenzyme A as substrate after 10 to 15 mins by liquid scintillation counting analysis.

SMILES strings stand for the structures.

Sequence of 2-acylglycerol O-acyltransferase 2 (human) (Q3SYC2 whole entry, looked up): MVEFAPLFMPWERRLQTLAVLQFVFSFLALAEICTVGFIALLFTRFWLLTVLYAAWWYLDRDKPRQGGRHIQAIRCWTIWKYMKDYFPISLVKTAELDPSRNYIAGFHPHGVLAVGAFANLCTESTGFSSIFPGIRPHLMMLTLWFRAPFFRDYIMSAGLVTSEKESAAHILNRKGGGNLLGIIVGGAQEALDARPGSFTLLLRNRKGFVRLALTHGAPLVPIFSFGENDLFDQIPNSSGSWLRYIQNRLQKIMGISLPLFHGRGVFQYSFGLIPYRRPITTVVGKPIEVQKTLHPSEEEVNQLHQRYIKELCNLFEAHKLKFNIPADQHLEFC
Sequence of 2-acylglycerol O-acyltransferase 1 (human) (Q96PD6 whole entry, looked up): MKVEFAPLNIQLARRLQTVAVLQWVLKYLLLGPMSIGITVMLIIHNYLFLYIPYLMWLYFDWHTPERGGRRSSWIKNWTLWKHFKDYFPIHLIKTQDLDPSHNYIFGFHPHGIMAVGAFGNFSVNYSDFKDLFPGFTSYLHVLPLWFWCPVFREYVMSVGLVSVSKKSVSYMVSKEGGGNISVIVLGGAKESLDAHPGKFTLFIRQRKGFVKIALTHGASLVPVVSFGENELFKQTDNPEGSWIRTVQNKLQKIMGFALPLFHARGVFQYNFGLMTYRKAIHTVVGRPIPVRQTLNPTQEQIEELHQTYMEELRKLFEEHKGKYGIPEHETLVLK

For the compound `CCC1(C)NC(=O)c2cc(S(=O)(=O)Nc3ccccc3Cl)ccc2NC1=O` (stereo unspecified), the IC50 (commonly the concentration needed to halve the response being measured) in assay [1] came out at 63 nM; in assay [2], 158 nM.

Regarding `CCC1(C)NC(=O)c2cc(S(=O)(=O)Nc3ccc(Cl)cc3)ccc2N(C)C1=O` (stereo unspecified), the 50% inhibitory concentration (IC50) in assay [2] came out at 398 nM.

On to `CCC1(CC)CNc2ccc(S(=O)(=O)Nc3ccc(F)cc3F)cc2CN1`, for which, in assay [1], the IC50 was 316 nM.

On to `CCC1(C)C(=O)Nc2ccc(S(=O)(=O)Nc3ccc(F)cc3F)cc2C(=O)N1C` (stereo unspecified), for which the results for the IC50 in assay [3] and in assay [1] were 631 nM and 7940 nM, respectively.

Take `CCC1(C)NC(=O)c2cc(S(=O)(=O)NC3CCCCC3)ccc2NC1=O` (stereo unspecified): the IC50 in assay [1] was found to be 5010 nM.

For the compound `CCC1NC(=O)c2cc(S(=O)(=O)Nc3ccccc3)ccc2NC1=O` (stereo unspecified), in assay [1], the IC50 was 5010 nM.

Take `CCC1(CC)NCc2cc(S(=O)(=O)Nc3ccc(F)cc3F)ccc2NC1=O`: in assay [1], the concentration for half-maximal inhibition (IC50) is 251 nM.

With `CCC1(C)NC(=O)c2cc(NS(=O)(=O)c3ccccc3)ccc2NC1=O` (stereo unspecified), in assay [1], the IC50 was greater than 100000 nM.

Regarding `CC1(C)COc2ccc(S(=O)(=O)Nc3ccc(Cl)cc3)cc2C(=O)N1`, the IC50 in assay [1] is 2000 nM.

With `CCC1(C)NC(=O)c2cc(S(=O)(=O)N(C)c3ccccc3)ccc2NC1=O` (stereo unspecified), the half-inhibitory concentration (IC50) in assay [1] was greater than 100000 nM.

On to `CCC1(C)NC(=O)c2cc(S(=O)(=O)Nc3ccccc3)ccc2NC1=O` (stereo unspecified), for which the IC50 in assay [2] was found to be 501 nM.

Take `CCCC1(C)NC(=O)c2cc(S(=O)(=O)Nc3ccc(F)cc3F)ccc2NC1=O` (stereo unspecified): the IC50 in assay [1] was 50 nM.

For `CCC1(CC)CNc2ccc(S(=O)(=O)Nc3ccc(F)cc3F)cc2C(=O)N1`, the IC50 in assay [1] amounted to 1.6 nM.

`CCC1(C)NC(=O)c2cc(S(=O)(=O)Nc3cccc(Cl)c3)ccc2NC1=O` (stereo unspecified): the half-inhibitory concentration (IC50) in assay [1] was determined as 2000 nM.

For the compound `CCC1(C)NC(=O)c2cc(S(=O)(=O)Nc3ccc(OC)cc3)ccc2NC1=O` (stereo unspecified), the IC50 in assay [2] was found to be 32 nM.

With `O=C1NC2(CCCC2)C(=O)Nc2ccc(S(=O)(=O)Nc3ccc(Cl)cc3)cc21`, the IC50 in assay [1] was found to be 50 nM.

On to `O=C(Nc1ccc(Cl)cc1)c1ccc2c(c1)C(=O)NC1(CCC1)C(=O)N2`, for which, in assay [1], the IC50 was greater than 100000 nM.

As for `CCC1(C)NC(=O)c2cc(S(=O)(=O)NCc3ccccc3)ccc2NC1=O` (stereo unspecified), the IC50 in assay [1] was determined as 7940 nM.

Turning to `O=C1NC2(CCC2)C(=O)Nc2ccc(S(=O)(=O)Nc3ccc(Cl)cc3)cc21`, the IC50 in assay [1] was 79 nM.

As for `CCC1(CC)NC(=O)c2cc(S(=O)(=O)Nc3ccc(F)cc3F)ccc2NC1=O`, the IC50 in assay [1] was found to be 3.2 nM.

Regarding `CCC1(C)NC(=O)c2cc(S(=O)(=O)Nc3ccc(Cl)cc3)ccc2NC1=O` (stereo unspecified), the half-maximal inhibitory concentration (IC50) in assay [3] came out at 4 nM; in assay [1], 25 nM; in assay [4], 398 nM; in assay [2], 50 nM.

For the origin of these results see BindingDB's records for doi:10.1016/j.bmcl.2013.02.084 (Astrazeneca, 2013).
